From BindingDB's records for doi:10.1111/j.1747-0285.2012.01371.x (Korea Research Institute of Chemical Technology, 2012) come the findings set out here.

SMILES strings stand for the structures.

What is called IC50 is the concentration at which inhibition is half-maximal. Read a low IC50 as inhibition by little substance.

The experiment addresses 5-lipoxygenase (Rattus norvegicus). Description: 5-LOX enzyme assay was carried out with some modifications of ferric oxidation of xylenol orange (FOX) assay, which is based on the complex formation of Fe3+/ xylenol orange with absorption at visible light. The note with it: pH 7.4.

`Oc1ccc(Nc2nc(-c3ccc(Br)cc3)cs2)cc1` [N-aryl-4-aryl-1,3-thiazole-2-amine, 4] registered a concentration for half-maximal inhibition (IC50) of 82 nM.

The compound `O=[N+]([O-])c1ccc(-c2csc(Nc3ccc(O)cc3)n2)cc1` [N-aryl-4-aryl-1,3-thiazole-2-amine, 6] yielded an IC50 of 25 nM.

As for `Oc1ccc(Nc2nc(-c3ccccc3F)cs2)cc1` [N-aryl-4-aryl-1,3-thiazole-2-amine, 7], the IC50 is 81 nM.

For the compound `Oc1ccc(Nc2nc(-c3cccc(F)c3)cs2)cc1` [N-aryl-4-aryl-1,3-thiazole-2-amine, 8], the IC50 was 65 nM.

`Oc1ccc(Nc2nc(-c3cc(Cl)ccc3Cl)cs2)cc1` [N-aryl-4-aryl-1,3-thiazole-2-amine, 11] came in with a concentration for half-maximal inhibition (IC50) of 92 nM.

In the case of `Oc1ccc(Nc2nc(-c3ccc(F)cc3F)cs2)cc1` [N-aryl-4-aryl-1,3-thiazole-2-amine, 12], 85 nM corresponded to half-maximal inhibition (IC50).

`Oc1c(Cl)cc(Nc2nc(-c3ccc(Cl)cc3)cs2)cc1Cl` [N-aryl-4-aryl-1,3-thiazole-2-amine, 13] displayed a concentration for half-maximal inhibition (IC50) of 146 nM.

Consider `Cc1cc(Nc2nc(-c3ccc(Cl)cc3)cs2)cc(C)c1O` [N-aryl-4-aryl-1,3-thiazole-2-amine, 14], for which the midpoint of inhibition, the IC50, lay at 127 nM.

Compound `Cc1cc(Nc2nc(-c3ccc(F)cc3)cs2)cc(Cl)c1O` [N-aryl-4-aryl-1,3-thiazole-2-amine, 15] gave an IC50 of 63 nM.

With `Oc1c(Cl)cc(Nc2nc(-c3ccc(F)cc3)cs2)cc1Cl` [N-aryl-4-aryl-1,3-thiazole-2-amine, 16], 93 nM corresponded to half-maximal inhibition (IC50).

In the case of `Cc1cc(Nc2nc(-c3ccc(F)cc3)cs2)c(C)cc1O` [N-aryl-4-aryl-1,3-thiazole-2-amine, 17], the IC50 amounted to 104 nM.

Compound `Nc1ccc(Nc2nc(-c3ccccc3)cs2)cc1` [N-aryl-4-aryl-1,3-thiazole-2-amine, 24] gave a half-maximal inhibitory concentration (IC50) of 120 nM.

In turn, `Nc1ccc(Nc2nc(-c3ccc(F)cc3)cs2)cc1` [N-aryl-4-aryl-1,3-thiazole-2-amine, 25] displayed an IC50 of 105 nM.

`Nc1ccc(Nc2nc(-c3ccc(Br)cc3)cs2)cc1` [N-aryl-4-aryl-1,3-thiazole-2-amine, 26] showed a 50% inhibitory concentration (IC50) of 201 nM.

`Nc1ccc(Nc2nc(-c3ccc([N+](=O)[O-])cc3)cs2)cc1` [N-aryl-4-aryl-1,3-thiazole-2-amine, 28] displayed a half-inhibitory concentration (IC50) of 92 nM.

`Nc1ccccc1Nc1nc(-c2ccc(Cl)cc2)cs1` [N-aryl-4-aryl-1,3-thiazole-2-amine, 29] registered an IC50 of 421 nM.

Compound `Nc1ccc(Nc2nc(-c3cc(Cl)ccc3Cl)cs2)cc1` [N-aryl-4-aryl-1,3-thiazole-2-amine, 31] showed an IC50 of 60 nM.

Compound `Nc1ccc(Nc2nc(-c3ccc(F)cc3F)cs2)cc1` [N-aryl-4-aryl-1,3-thiazole-2-amine, 32] came in with a half-maximal inhibitory concentration (IC50) of 70 nM.
